Data set [1] deals with T1, Corticotropin-releasing factor receptor 1 (Rattus norvegicus, UniProt P35353).
T1 sequence (P35353 whole entry): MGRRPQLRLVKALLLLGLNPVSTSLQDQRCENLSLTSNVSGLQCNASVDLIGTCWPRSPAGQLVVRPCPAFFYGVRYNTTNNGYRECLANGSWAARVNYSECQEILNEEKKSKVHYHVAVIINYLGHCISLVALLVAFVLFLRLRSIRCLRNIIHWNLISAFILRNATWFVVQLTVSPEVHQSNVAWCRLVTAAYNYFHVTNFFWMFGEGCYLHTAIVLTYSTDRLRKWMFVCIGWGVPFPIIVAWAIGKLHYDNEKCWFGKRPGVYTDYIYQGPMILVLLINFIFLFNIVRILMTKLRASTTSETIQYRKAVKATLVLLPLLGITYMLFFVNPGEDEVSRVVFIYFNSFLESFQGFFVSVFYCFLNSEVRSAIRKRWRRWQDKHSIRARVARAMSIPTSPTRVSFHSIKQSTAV
Kind of data set: Displacement of [125I]Tyr-ovine-CRF from CRF1 receptor in rat frontal cortex homogenate after 2 hrs by gamma counting analysis. The data set is classed as tissue-based.

Data set [2] concerns the target T2, Corticotropin-releasing factor receptor 1 (Homo sapiens) (UniProt P34998).
T2 sequence (whole entry): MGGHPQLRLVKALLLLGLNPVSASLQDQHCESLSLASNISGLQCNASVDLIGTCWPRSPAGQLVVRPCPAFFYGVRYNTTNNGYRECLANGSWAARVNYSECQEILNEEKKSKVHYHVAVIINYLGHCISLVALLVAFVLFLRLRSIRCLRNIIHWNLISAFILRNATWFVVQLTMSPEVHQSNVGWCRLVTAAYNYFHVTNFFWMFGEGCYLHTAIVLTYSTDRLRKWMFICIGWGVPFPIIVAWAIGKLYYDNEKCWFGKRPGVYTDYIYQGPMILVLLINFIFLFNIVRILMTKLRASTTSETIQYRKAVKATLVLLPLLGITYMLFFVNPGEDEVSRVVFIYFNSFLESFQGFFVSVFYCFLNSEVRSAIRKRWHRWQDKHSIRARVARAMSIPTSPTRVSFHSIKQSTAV
The data set is described as follows: (§1) Antagonist activity at CRF1 receptor in human Y79 cells assessed as inhibition of CRF-stimulated cAMP production preincubated for 30 mins followed by CRF addition measured after 30 mins by HTRF assay. The data set is classed as functional, cell-based. For orientation: Cyclic AMP is a second messenger, typically raised through Gs and lowered through Gi signalling.

For data set [3], the target named is T3, Corticotropin-releasing factor receptor 1 (Homo sapiens, UniProt P34998).
T3 sequence (P34998 whole entry): T2 sequence (whole entry)
Described as §1. The data set is classed as functional, cell-based.

Data set [4] is described as follows: Metabolic stability in human liver microsomes assessed as compound remaining after 10 mins. The data set is classed as ADME. The settings on record: read-out: Stability.
The nature of data set [5]: Metabolic stability in rat liver microsomes assessed as compound remaining after 10 mins. The data set is classed as ADME. The settings on record: read-out: Stability. On the technique in general: Liver microsomes are vesicles of endoplasmic reticulum, rich in cytochrome P450 enzymes.

SMILES strings stand for the structures.

Broadly, the IC50 is the point on the concentration scale where inhibition reaches its midpoint. In data set [1], `COc1nc(C)c(Nc2nc(Cl)cn([C@H](COc3cc(C#N)ccn3)C3CC3)c2=O)cc1C` yielded an IC50 of 6.8 nM.

`COc1nc(C)c(Nc2nc(Cl)cn([C@H](COC(=O)c3ccncc3)C3CC3)c2=O)cc1C` displayed a concentration for half-maximal inhibition (IC50) in data set [1] of 4.9 nM. On to `COc1nc(C)c(Nc2nc(Cl)cn([C@H](COC(C)=O)C3CC3)c2=O)cc1C`, for which the IC50 in data set [1] is 5.3 nM.

On to `COc1nc(C)c(Nc2nc(Cl)cn([C@H](COc3ccc(C(F)(F)F)cn3)C3CC3)c2=O)cc1C`, for which, in data set [1], the concentration for half-maximal inhibition (IC50) stood at 1.6 nM. On to `COc1nc(C)c(Nc2nc(Cl)cn([C@H](COc3ccc(C#N)cn3)C3CC3)c2=O)cc1C`, for which the IC50 in data set [1] was found to be 7.7 nM. In data set [1], `COc1nc(C)c(Nc2nc(Cl)cn([C@H](COc3ccccn3)C3CC3)c2=O)cc1C` had an IC50 of 1.2 nM. Take `Cc1cc(Nc2nc(Cl)cn([C@H](COC(=O)Nc3ccccc3)C3CC3)c2=O)c(C)nc1OC(F)F`: the inhibition result in data set [2] is “Dose-dependent effect”. For the same molecule, the IC50 in data set [3] amounted to 1.2 nM. Also, the results for the remaining at 10 min in data set [4] and in data set [5] were 77% and 75%, respectively. In data set [1], `COc1nc(C)c(Nc2nc(Cl)cn([C@H](COC(=O)Nc3cc(Cl)cc(Cl)c3)C3CC3)c2=O)cc1C` yielded a half-inhibitory concentration (IC50) of 1.7 nM. On to `Cc1cc(Nc2nc(Cl)cn([C@H](COC(=O)Nc3cccnc3)C3CC3)c2=O)c(C)nc1OC(F)F`, for which the IC50 in data set [1] is 1.9 nM. The remaining at 10 min in data set [4] came to 71%; in data set [5], 52%. `COc1nc(C)c(Nc2nc(Cl)cn([C@H](COC(=O)Nc3ccc(Cl)cc3)C3CC3)c2=O)cc1C` displayed an IC50 in data set [1] of 1.6 nM. `COc1nc(C)c(Nc2nc(Cl)cn([C@H](COC(=O)Nc3ccccc3)C3CC3)c2=O)cc1C`: the half-inhibitory concentration (IC50) in data set [1] worked out at 1.5 nM. Also, the remaining at 10 min in data set [4] turned out to be 32%; in data set [5] it was 33%. As for `CCCNC(=O)OC[C@H](C1CC1)n1cc(Cl)nc(Nc2cc(C)c(OC)nc2C)c1=O`, in data set [1], the IC50 is 10 nM.

Molecule `CCNC(=O)OC[C@H](C1CC1)n1cc(Cl)nc(Nc2cc(C)c(OC)nc2C)c1=O` showed an IC50 in data set [1] of 14 nM.

On to `COc1nc(C)c(Nc2nc(Cl)cn([C@H](COC(=O)Nc3cccnc3)C3CC3)c2=O)cc1C`, for which the half-inhibitory concentration (IC50) in data set [1] worked out at 10 nM. For the same molecule, the remaining at 10 min was 36% in data set [4] and 35% in data set [5]. With `COc1nc(C)c(Nc2nc(Cl)cn([C@H](COC(=O)Nc3cccc(C#N)c3)C3CC3)c2=O)cc1C`, in data set [1], the IC50 is 1.3 nM.

On to `COc1nc(C)c(Nc2nc(Cl)cn([C@H](COc3cccnc3)C3CC3)c2=O)cc1C`, for which the half-maximal inhibitory concentration (IC50) in data set [1] worked out at 6.7 nM.

Take `COc1nc(C)c(Nc2nc(Cl)cn([C@H](COc3cc(Br)ccn3)C3CC3)c2=O)cc1C`: the IC50 in data set [1] came to 1.5 nM. For the molecule `COc1nc(C)c(Nc2nc(Cl)cn([C@H](COC(=O)Nc3ccccc3Cl)C3CC3)c2=O)cc1C`, the IC50 in data set [1] was determined as 1.5 nM. Same read-out and setting: for `COc1nc(C)c(Nc2nc(Cl)cn([C@H](COC(=O)Nc3ccc(Cl)cc3Cl)C3CC3)c2=O)cc1C` the value was 1.7 nM; for `COc1ccc(NC(=O)OC[C@H](C2CC2)n2cc(Cl)nc(Nc3cc(C)c(OC)nc3C)c2=O)c(C)n1`, 9.2 nM; for `COc1nc(C)c(Nc2nc(Cl)cn([C@H](COC(=O)c3ccccc3)C3CC3)c2=O)cc1C`, 1.5 nM. In the case of `COC[C@H](C1CC1)n1cc(Cl)nc(Nc2cc(C)c(OC(F)F)nc2C)c1=O`, the IC50 in data set [1] was found to be 0.29 nM. `COc1nc(C)c(Nc2nc(Cl)cn([C@H](COC(=O)c3cccnc3)C3CC3)c2=O)cc1C` displayed a half-inhibitory concentration (IC50) in data set [1] of 5.2 nM. `COc1nc(C)c(Nc2nc(Cl)cn([C@H](COC(=O)c3ccccn3)C3CC3)c2=O)cc1C` yielded an IC50 in data set [1] of 67 nM. In data set [1], `COc1nc(C)c(Nc2nc(Cl)cn([C@H](CO)C3CC3)c2=O)cc1C` came in with an IC50 of 88 nM.

(Values after ChEMBL document CHEMBL3797145, “Synthesis and evaluation of carbamate and aryl ether substituted pyrazinones as corticotropin releasing factor-1 (CRF₁) receptor antagonists” (Bioorg Med Chem Lett, 2016).)
